Experiments:
Jurkat cells [1] = assay: Caspase 3 activity (apoptosis) in Jurkat cells after storage under xenon pressure; type: cell-based; settings: 4 Atm excessive pressure of gas comprising xenon, 24 hrs of storage, with and without doxorubicin
U-937 cells = assay: JC-1 staining of U-937 cells with flow cytometry (state of mitochondria, apoptosis) after storage under xenon; type: cell-based, human
Description: In order to obtain the data presented in these Examples, Leukemic monocyte lymphoma cells U-937 were grown in RPMI-1640 medium supplied with 15% fetal bovine serum and 10 mkg/ml gentamicin in the atmosphere of 5% CO2 at 37° C. Petri dishes containing the cell culture in exponential phase of growth were placed into a holding rack and transferred into containers having an inner volume of approximately 1.5 L which were designed for storage in hyperbaric conditions. The mixture of gases Xe—CO2 (95% and 5% respectively) was used for buildup of pressure of 0.5 to 4.0 Atm above ambient pressure over a period of 5-10 minutes, with particular parameters presented in connection with the Figures presented herein. The temperature was held from 22° C. to 37° C. in this embodiment of the invention Gases were mixed in a separate tank (or in the container/tube) based on calculation of their partial pressure. The container with Petri dishes was kept at this temperature and pressure for 2 hrs. Then the container was transferred to a refrigerator with decreased temperature (from 0.1° C. to +5° C.), while maintaining the pressure. The container was held at under these conditions for approximately 4 weeks. After that, the pressure was released and the container holding the cells was kept for 7 days in a household at a temperature of +4° C. to +10° C. and atmospheric pressure.
Accordingly, these cells respond to a large number of both extracellular and intracellular proapoptotic signals and have been used as model cells for analyzing apoptosis (Pimentel-Muiños F X, Seed B. Regulated commitment of TNF receptor signaling: a molecular switch for death or activation. Immunity. 1999 December; 11 (6):783-93; Karas M, Zaks T Z, Liu J L, LeRoith D. T cell receptor-induced activation and apoptosis in cycling human T cells occur throughout the cell cycle. Mol Biol Cell. 1999 December; 10 (12):4441-50; Valavanis C, Hu Y, Yang Y, Osborne B A, Chouaib S, Greene L, Ashwell J D, Schwartz L M. Model cell lines for the study of apoptosis in vitro. Methods Cell Biol. 2001; 66:417-36).

Jurkat cells [2] = assay: Live Jurkat cell count (trypan blue) after transfer from storage to standard cultivation conditions; type: cell-based; settings: 24 hrs under standard conditions (37° C., 5% CO2) after storage, Xe+37 doxo and Xe+4 doxo vs control, FIG. 3

SMILES: [Xe] [xenon]
- development of spontaneous and induced (Doxo) apoptosis, caspase 3 activity (Jurkat cells [1]; FIG. 4): prevented development of both spontaneous (series no Doxo in the diagram) and induced (series Doxo in the diagram) apoptosis
- development of spontaneous and induced (Doxo) apoptosis, caspase 3 activity (Jurkat cells [1]; FIG. 4, listed as Xenon): prevented development of both spontaneous (no Doxo and non-treated) and induced (Doxo) apoptosis
- development of spontaneous and induced (Doxo) apoptosis (U-937 cells; 4 Atm over ambient pressure Xe, with and without doxorubicin, FIG. 5): prevented development of both spontaneous (no Doxo and non-treated) and induced (Doxo) apoptosis
- damage of mitochondria compared to control (U-937 cells; JC-1, after 7 days of storage, control = no gas, 37° C.): significantly decreased damage of mitochondria
- percentage of doxorubicin-treated cells with undamaged mitochondria (U-937 cells; JC-1, vs cells stored without xenon, after 24 hrs and 7 days of storage, FIG. 5): significantly higher
- action on cellular mitochondria (U-937 cells; xenon both in combination with cooling and without cooling): exerted protective action on cellular mitochondria
- cell growth (number of live cells) after exposure to doxorubicin (Jurkat cells [2]): improved cell growth after exposure to doxorubicin
